Read-outs that look alike come from different tables or passages of the source.
Legend:
[1] = target: IRAK4 (Homo sapiens (Human), UniProt Q9NWZ3); test: IRAK4 Inhibition Assay; assay type: biochemical; conditions: ATP 500 μM; IRAK4 0.6 nM; 60 min at room temperature
Protocol: The assays were performed in U-bottom 384-well plates. […] The reaction was initiated by the combination of IRAK4 with substrates and test compounds. The reaction was incubated at room temperature for 60 min. and terminated by adding 45 μL of 35 mM EDTA to each sample. The reaction mixture was analyzed on the Caliper LABCHIP® 3000 (Caliper, Hopkinton, Mass.) by electrophoretic separation of the fluorescent substrate and phosphorylated product.

[2] = test system: TLR2 induced IL-6 in peripheral blood mononuclear cells (PBMCs); test: PBMC TLR2 Induced IL-6 Assay; assay type: cell-based, human; conditions: human PBMCs, 10 μg/ml lipoteichoic acid for 5 hours, IL-6 by ELISA; for IC50: value without asterisk, read-out: Cell IC50
How it was run: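 Human PBMCs (250000 cells/well) in RPMI with 10% heat-inactivated FCS pre-treated with compound for 30 min at 37° C, then stimulated 5 h with 10 μg/ml lipoteichoic acid. Supernatant IL-6 measured by ELISA and reported as IC50 or EC50.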

Sequence of IRAK4 (Q9NWZ3 whole entry, species assumed): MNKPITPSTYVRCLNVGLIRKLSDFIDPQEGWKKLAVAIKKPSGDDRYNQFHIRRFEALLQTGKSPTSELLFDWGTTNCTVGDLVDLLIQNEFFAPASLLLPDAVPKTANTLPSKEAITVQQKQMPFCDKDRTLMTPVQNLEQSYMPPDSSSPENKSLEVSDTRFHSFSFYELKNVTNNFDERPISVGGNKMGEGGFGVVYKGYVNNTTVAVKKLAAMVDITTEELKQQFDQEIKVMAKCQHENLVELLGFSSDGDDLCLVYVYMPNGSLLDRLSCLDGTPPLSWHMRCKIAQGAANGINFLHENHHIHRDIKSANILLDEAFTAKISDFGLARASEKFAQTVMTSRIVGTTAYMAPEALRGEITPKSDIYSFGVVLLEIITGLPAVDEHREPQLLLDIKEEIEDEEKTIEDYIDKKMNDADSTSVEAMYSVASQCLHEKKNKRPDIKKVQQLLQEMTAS

| SMILES | IC50 [1] [nM] | IC50 [2] [nM] | IC50 ([2]; Homo sapiens, PBMC, 5 h) [nM] | EC50 ([2]; Homo sapiens, PBMC, 5 h, EC50 determinations are indicated with an asterisk, read-out: Cell EC50 (asterisk)) [nM] |
| --- | --- | --- | --- | --- |
| CNC(=O)c1cnc(Nc2nc3ccc(Cl)nc3s2)cc1NC(C)C [Example 4, 6-(5-chlorothiazolo[5,4-b]pyridin-2-ylamino)-4-(isopropylamino)-N-methylnicotinamide] | 18.2 | – | 639 | – |
| CC(C)(O)[C@H](F)CNC(=O)c1cnc(Nc2ccc3ncsc3c2)cc1Nc1cccc(CCO)c1 [Example 59] | 6 | – | 99 | – |
| CC(C)(O)[C@H](F)CNC(=O)c1cnc(Nc2ccc3ncsc3c2)cc1NC1CCCOC1 (stereo partly shown) [Example 53] | 5.4 | – | 230 | – |
| CC(C)(O)[C@H](F)CNC(=O)c1cnc(Nc2ccc3ncsc3c2)cc1NC1CCC(O)C1 (stereo partly shown) [Example 37] | 3.9 | – | 297 | – |
| CC(C)(O)[C@H](F)CNC(=O)c1cnc(Nc2ccn3nccc3n2)cc1NC1CCC(F)C1 (stereo partly shown) [Example 255] | 2.4 | 86 | – | – |
| CC(C)(O)[C@H](F)CNC(=O)c1cnc(Nc2ccc3nccn3n2)cc1NC1CCCC1F (stereo partly shown) [Example 273] | 2.4 | – | 764 | – |
| CC(C)(O)[C@H](F)CNC(=O)c1cnc(Nc2ccc3ncccc3c2)cc1NC1CC1 [Example 58] | 7 | – | 545 | – |
| CC(C)(O)[C@H](F)CNC(=O)c1cnc(Nc2ccn3ncc(F)c3n2)cc1NC1CC(F)(F)C1 [Example 265] | 3.3 | – | 217 | – |
| CC(C)Nc1cc(Nc2ccc3ncsc3c2)ncc1C(=O)NCC[C@@H](C)NC(=O)[C@@H]1CCC(F)(F)C1 [Example 186] | 2.4 | – | 361 | – |
| CNC(=O)c1cnc(Nc2ccc3ncsc3c2)cc1NC1C2CC3CC1CC(O)(C3)C2 (single isomer, unassigned) [Example 148] | 24.5 | 456 | – | – |
| CC(C)Nc1cc(Nc2ccn3ncc(F)c3n2)ncc1C(=O)NC[C@@H](F)C(C)(C)O [Example 244] | 1.9 | – | 156 | – |
| Cc1cnc2ccc(Nc3cc(NC(C)C)c(C(=O)NC[C@@H](F)C(C)(C)O)cn3)nn12 [Example 277] | 3.6 | – | 180 | – |
| CC(C)Nc1cc(Nc2ccc3ncsc3c2)ncc1C(=O)NC12CCC(N)(CC1)C2 [Example 224] | 9.6 | – | 280 | – |
| CC(C)Nc1cc(Nc2ccc3ncsc3c2)ncc1C(=O)N[C@H]1CC[C@H](NC(=O)c2ccccn2)CC1 [Example 201] | 4.5 | – | 499 | – |
| CC(C)Nc1cc(Nc2ccc3ncsc3c2)ncc1C(=O)NC[C@@H](F)C(O)C(C)C (stereo partly shown) [Example 13] | 3 | 107 | – | – |
| CC(C)Nc1cc(Nc2ccc3ncsc3c2)ncc1C(=O)NC[C@@H](F)C(O)C(C)C (stereo partly shown) [Example 14] | 4.3 | 461 | – | – |

| SMILES | IC50 [1] [nM] | IC50 [2] [nM] | IC50 ([2]; Homo sapiens, PBMC, 5 h) [nM] | EC50 ([2]; Homo sapiens, PBMC, 5 h, EC50 determinations are indicated with an asterisk, read-out: Cell EC50 (asterisk)) [nM] |
| --- | --- | --- | --- | --- |
| CC(C)(O)[C@H](F)CNC(=O)c1cnc(Nc2ccc3nonc3c2)cc1NC1CCC1 [Example 98] | 7.2 | – | 165 | – |
| CC(C)(O)[C@H](F)CNC(=O)c1cnc(Nc2ccc3ncncc3c2)cc1NC1CCC1 [Example 73] | 2.7 | – | 327 | – |
| CC(C)(O)[C@H](F)CNC(=O)c1cnc(Nc2ccc3ncoc3c2)cc1NCC(F)(F)F [Example 110] | 12.6 | – | 728 | – |
| CC(C)(O)[C@H](F)CNC(=O)c1cnc(Nc2ccc3ncsc3c2)cc1NC1CC(F)(F)C1 [Example 121] | 2 | – | 345 | – |
| CC(C)Nc1cc(Nc2ccc3ncsc3c2)ncc1C(=O)NCC[C@@H](C)NC(=O)OC(C)C [Example 183] | 3.9 | – | 436 | – |
| CC(C)Nc1cc(Nc2ccc3ncsc3c2)ncc1C(=O)NC1CCN(S(C)(=O)=O)CC1 [Example 217] | 5 | – | 560 | – |
| CC(=O)N[C@H]1CC[C@@H](NC(=O)c2cnc(Nc3ccc4ncsc4c3)cc2NC(C)C)CC1 [Example 216] | 3.5 | – | 604 | – |
| CCNc1cc(Nc2ccc3ncnc(OC)c3c2)ncc1C(=O)NC[C@@H](F)C(C)(C)O [Example 125] | 13.4 | – | 779 | – |
| CC(C)(O)[C@H](F)CNC(=O)c1cnc(Nc2ccc3ncsc3c2)cc1NC1CCOCC1F (stereo partly shown) [Example 230] | 5.1 | 274 | – | – |
| CC(=O)NCCCCNC(=O)c1cnc(Nc2ccc3ncsc3c2)cc1NC(C)C [Example 209] | 5.3 | – | 875 | – |
| CNC(=O)c1cc(F)c(Nc2cc(Nc3ccc4ncsc4c3)ncc2C(=O)NC[C@@H](F)C(C)(C)O)cc1F [Example 78] | 8.6 | – | 282 | – |
| CC(C)(C)CNc1cc(Nc2ccc3nccn3n2)ncc1C(=O)NC[C@@H](F)C(C)(C)O [Example 275] | 3.1 | – | 335 | – |
| CC(C)Nc1cc(Nc2ccc3ncsc3c2)ncc1C(=O)NCC[C@@H](C)NC(=O)OC(C)(C)C [Example 175] | 5.1 | – | 402 | – |
| CC(=O)N[C@H](C)CCNC(=O)c1cnc(Nc2ccc3ncsc3c2)cc1NC(C)C [Example 180] | 3.7 | – | 415 | – |
| CC(C)Nc1cc(Nc2ccc3ncsc3c2)ncc1C(=O)NCCC(C)(C)O [Example 8] | 4.1 | – | 290 | – |

The next lines start with results.

| IC50 [1] [nM] | SMILES | IC50 [2] [nM] | IC50 ([2]; Homo sapiens, PBMC, 5 h) [nM] | EC50 ([2]; Homo sapiens, PBMC, 5 h, EC50 determinations are indicated with an asterisk, read-out: Cell EC50 (asterisk)) [nM] |
| --- | --- | --- | --- | --- |
| 4.1 | CC(O)([C@H](F)CNC(=O)c1cnc(Nc2ccc3ncsc3c2)cc1N[C@@H]1CCC[C@H]1O)C(F)(F)F (stereo partly shown) [Example 333] | 152 | – | – |
| 5.7 | CC(C)(O)[C@H](F)CNC(=O)c1cnc(Nc2ccn3nccc3c2)cc1NC1CCCC1(F)F (stereo partly shown) [Example 297] | – | 535 | – |
| 2.1 | CC(C)(O)[C@H](F)CNC(=O)c1cnc(Nc2ccn3nccc3c2F)cc1N[C@@H]1CCCC1(F)F [Example 435] | – | 79 | – |
| 2.6 | CC(C)(O)[C@H](F)CNC(=O)c1cnc(Nc2ccc3ncc(C#N)cc3n2)cc1NC1CCC(F)C1 (stereo partly shown) [Example 412] | 109 | – | – |
| 3 | CC(C)(O)[C@H](F)CNC(=O)c1cnc(Nc2nc3ccnn3cc2F)cc1NC1CCC(F)C1 (stereo partly shown) [Example 409] | 207 | – | – |
| 3.2 | CC(C)(O)[C@H](F)CNC(=O)c1cnc(Nc2nc3ccnn3cc2F)cc1NC1CCC(F)C1 (stereo partly shown) [Example 410] | 340 | – | – |
| 1.5 | CC(C)(O)[C@H](F)CNC(=O)c1cnc(Nc2nc3scnc3cc2F)cc1NC1CCCOC1 (stereo partly shown) [Example 473] | – | 401 | – |
| 3.3 | CC(C)(O)c1cnc(Nc2cc(Nc3ccn4nccc4n3)ncc2C(=O)NC[C@@H](F)C(C)(C)O)s1 [Example 421] | – | 131 | – |
| 10.4 | CCC(O)(CC)[C@H](F)CNC(=O)c1cnc(Nc2ccn3nccc3n2)cc1NCC(C)(C)F [Example 389] | – | 574 | – |
| 2.2 | CC(C)(O)[C@H](F)CNC(=O)c1cnc(Nc2nc3scnc3cc2F)cc1NCC(F)(F)F [Example 519] | – | 634 | – |
| 4.4 | Cc1nn2ccc(Nc3cc(NCC(C)(C)F)c(C(=O)NC[C@@H](F)C(C)(C)O)cn3)cc2c1F [Example 300] | – | 294 | – |
| 2.2 | CC(C)(O)[C@H](F)CNC(=O)c1cnc(Nc2ccc3ncncc3c2)cc1N[C@@H]1CCC[C@H]1O [Example 330] | – | 76 | – |
| 2.8 | CC(C)(O)[C@H](F)CNC(=O)c1cnc(Nc2nc3scnc3cc2F)cc1NC1CCCOC1 (stereo partly shown) [Example 474] | 204 | – | – |
| 5.6 | CCC(C)Nc1cc(Nc2ccn3nccc3c2)ncc1C(=O)NC[C@@H](F)C(C)(C)O (stereo partly shown) [Example 302] | – | 426 | – |
| 4.7 | CC(C)(F)CNc1cc(Nc2ccn3nccc3c2)ncc1C(=O)NC[C@@H](F)C(C)(C)O [Example 294] | – | 416 | – |
| 7.8 | CC(C)(O)[C@H](F)CNC(=O)c1cnc(Nc2ccc3ncccc3n2)cc1NC1CCCC1F (stereo partly shown) [Example 404] | – | 1010 | – |
| 9.3 | CC(C)(O)[C@@H](F)CNC(=O)c1cnc(Nc2ccc3ncsc3c2)cc1NC1CC1 [Example 366, (S)-6-(benzo[d]thiazol-6-ylamino)-4-(cyclopropylamino)-N-(2-fluoro-3-hydroxy-3-methylbutyl)nicotinamide] | – | 734 | – |
| 4.3 | CC(C)(O)[C@H](F)CNC(=O)c1cnc(Nc2ccn3nccc3n2)cc1NC1CCSCC1 [Example 385] | – | 135 | – |
| 2.4 | CC(C)(O)[C@H](F)CNC(=O)c1cnc(Nc2ccc3ncsc3c2)cc1Nc1ccc(C(N)=O)cc1 [Example 320] | – | 270 | – |
| 10.2 | CNC(=O)[C@H]1CC[C@H](NC(=O)c2cnc(Nc3nc4ccnn4cc3F)cc2NC2CC2)CC1 [Example 508] | – | 10000 | – |
| 4.3 | CC(C)(O)[C@H](F)CNC(=O)c1cnc(Nc2nc3ccnn3cc2F)cc1NC1CCCCC1F (stereo partly shown) [Example 479] | – | 473 | – |
| 1.8 | CC(=O)N[C@H]1CC[C@H](NC(=O)c2cnc(Nc3ccc4ncsc4n3)cc2NC2CCOCC2)CC1 [Example 514] | – | – | 26 |
| 20.1 | CC(C)(O)[C@H](F)CNC(=O)c1cnc(Nc2ccn3nccc3n2)cc1NCC(F)F [Example 386] | – | 516 | – |
| 4.9 | CC(C)(O)[C@H](F)CNC(=O)c1cnc(Nc2nc3ccnn3cc2F)cc1NC1CCOCC1F (stereo partly shown) [Example 436] | – | 346 | – |
| 12 | CNC(=O)[C@H]1CC[C@H](NC(=O)c2cnc(Nc3cnc4[nH]ccc4c3)cc2NC(C)C)CC1 [Example 507] | – | 523 | – |

Source: US9546153B2, “Bicyclic heterocycle substituted pyridyl compounds useful as kinase modulators” (BRISTOL-MYERS SQUIBB COMPANY, priority 2012, dated 2017)
